Test systems include A498 renal; HCT-15 colon; HL-60(TB) leukemia; HS 578T breast; MDA-MB-435; OVCAR-3 ovarian; SF-268 CNS; T-47D breast.
Experiment in all cases: DTP human tumour cell line panel, 48 h

SMILES strings stand for the structures. Values joined by “and” are separate entries in the source; they are usually repeats but may differ in a detail not shown here. Identical values can stand only once.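 Where inhibition never reached the appropriate level, the endpoint shown equals the highest concentration tested. Otherwise, values were interpolated linearly from a five-concentration, 48-hour dose response in 96-well plates. At the GI50, growth is halved. TGI is the concentration that stops growth completely.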

In general, GI50 refers to the concentration at which growth is held to half of that of the control. As usually defined, the TGI is the concentration giving total growth inhibition. Low readings indicate more potent growth arrest, high ones less potent growth arrest. As to `ClCC#CCSc1ncnc2c1ncn2CC#CCCl`, the GI50 with A498 renal is 1.75 µM; in the experiment on HCT-15 colon, 1.68 µM; in the experiment on HL-60(TB) leukemia, 1.99 µM; in the experiment on HS 578T breast it was 2.41 µM; in the experiment on MDA-MB-435, 2.27 µM; in the experiment with OVCAR-3 ovarian it was 1.51 µM. Moreover, the GI50 in the experiment on SF-268 CNS and in the experiment on T-47D breast was 1.33 µM each time. Further, the TGI in the experiment with A498 renal turned out to be 4.75 µM; with HCT-15 colon, 5.97 µM; with HL-60(TB) leukemia, 5.73 µM; in the experiment with HS 578T breast it was 9.8 µM; in the experiment on MDA-MB-435, 9.04 µM; with OVCAR-3 ovarian, 2.95 µM. Further, the TGI with SF-268 CNS is 3.09 µM; with T-47D breast, 2.68 µM.

As for `OC(COc1cccc2ccccc12)CN1CCN(c2ccccc2Cl)CC1` (centres undefined), the GI50 was 12.3 µM in the experiment on A498 renal; 12.8 µM in the experiment on HCT-15 colon; 12.7 µM with HL-60(TB) leukemia; 15.8 µM in the experiment with HS 578T breast; 14.5 µM with MDA-MB-435; 13.9 µM in the experiment with OVCAR-3 ovarian. The GI50 with SF-268 CNS and with T-47D breast was 13.9 µM each time. The TGI with A498 renal is 24.9 µM; in the experiment on HCT-15 colon, 28.6 µM; in the experiment with HL-60(TB) leukemia, 44.2 µM; in the experiment with HS 578T breast, 58 µM; with MDA-MB-435, 30.4 µM; in the experiment with OVCAR-3 ovarian, 27.6 µM. The TGI with SF-268 CNS is 29.9 µM; with T-47D breast it was 29.6 µM.

Take `CCOC(=O)c1ccccc1-c1c2ccc(=[N+](C)C)cc-2oc2cc(N(C)C)ccc12`: the concentration for 50% growth inhibition (GI50) is 0.013 µM with A498 renal; 2.96 µM in the experiment on HCT-15 colon; 0.229 µM in the experiment with HL-60(TB) leukemia; 0.548 µM in the experiment with HS 578T breast; 0.255 µM in the experiment with MDA-MB-435; 0.209 µM in the experiment with OVCAR-3 ovarian. In addition, the GI50 is 0.332 µM in the experiment with SF-268 CNS and 0.104 µM in the experiment on T-47D breast. The total growth inhibition concentration (TGI) in the experiment with A498 renal is 1.11 µM; in the experiment on HCT-15 colon it was above 37.2 µM; in the experiment with HL-60(TB) leukemia, 1.08 µM; in the experiment on HS 578T breast, 51.2 µM; with MDA-MB-435, 5.71 µM; in the experiment on OVCAR-3 ovarian, 13.4 µM. For the same compound, the total growth inhibition concentration (TGI) in the experiment with SF-268 CNS is 27.5 µM; with T-47D breast, 19.8 µM.

As for `N#Cc1c2c(c(-c3cccs3)n(C3OC(CO)C(O)C(O)C3O)c1=S)CCc1ccccc1-2` (centres undefined), the GI50 is 5.6 µM and 15.7 µM in the experiment on A498 renal; above 100 µM with SF-268 CNS; > 25.1 µM and 7.83 µM in the experiment with T-47D breast. Besides, the TGI is above 100 µM with A498 renal; above 100 µM in the experiment on HCT-15 colon; above 84.7 µM with HL-60(TB) leukemia; above 100 µM with HS 578T breast; above 100 µM in the experiment on MDA-MB-435; above 100 µM in the experiment on OVCAR-3 ovarian. The TGI in the experiment with SF-268 CNS and with T-47D breast was above 100 µM in each case.

As to `CC(=O)N1CCN(CCOc2ccc(C3CCN(C4=Nn5c(nnc5C(F)(F)F)CC4)CC3)cc2)CC1`, the GI50 in the experiment with A498 renal was 12.8 µM; with HCT-15 colon, 14 µM; in the experiment with HL-60(TB) leukemia it was 4.41 µM; with HS 578T breast, 5.43 µM; in the experiment with MDA-MB-435, 10.2 µM; in the experiment with OVCAR-3 ovarian, 20.8 µM. Also, the GI50 was 77.9 µM in the experiment with SF-268 CNS and 5.21 µM with T-47D breast. The TGI was above 89.8 µM in the experiment with A498 renal; above 100 µM in the experiment with HCT-15 colon; 99.4 µM in the experiment on HL-60(TB) leukemia; above 100 µM in the experiment with HS 578T breast; above 100 µM in the experiment with MDA-MB-435; above 100 µM in the experiment on OVCAR-3 ovarian. Also, the TGI in the experiment on SF-268 CNS and in the experiment on T-47D breast was above 100 µM each time.

For the compound `O=C(CCl)Nc1cc(O)c2c(c1)C(=O)c1cccc(O)c1C2=O`, the GI50 was 3.17 µM with A498 renal; 0.62 µM in the experiment on HCT-15 colon; 2.44 µM in the experiment with HL-60(TB) leukemia; 2.46 µM in the experiment on HS 578T breast; 1.95 µM in the experiment on MDA-MB-435; 1.23 µM in the experiment on OVCAR-3 ovarian. For the same compound, the GI50 in the experiment with SF-268 CNS is 1.69 µM; in the experiment on T-47D breast, 1.19 µM. For the same compound, the concentration for total growth inhibition (TGI) in the experiment on A498 renal stood at 36.6 µM; in the experiment on HCT-15 colon it was 2.01 µM; with HL-60(TB) leukemia it was 6.08 µM; in the experiment on HS 578T breast it was 10.6 µM; with MDA-MB-435, 4.72 µM; in the experiment with OVCAR-3 ovarian, 2.49 µM. Moreover, the total growth inhibition concentration (TGI) came out at 3.9 µM in the experiment with SF-268 CNS and 3.61 µM with T-47D breast.

Regarding `COc1ccc2c(c1)CC[C@@H]1[C@@H]2CC[C@]2(C)C=C(/C=C/C(=O)c3ccccc3)C[C@@H]12`, the GI50 with A498 renal was 13.3 µM; in the experiment with HCT-15 colon it was 17.4 µM; in the experiment with HL-60(TB) leukemia, 11.2 µM; with HS 578T breast, 19 µM; with MDA-MB-435, 18.4 µM; in the experiment on OVCAR-3 ovarian it was 16.2 µM. The GI50 with SF-268 CNS is 18.2 µM; in the experiment on T-47D breast, 12 µM. The TGI in the experiment on A498 renal is 26.3 µM; with HCT-15 colon it was 34.3 µM; with HL-60(TB) leukemia it was 32.4 µM; in the experiment on HS 578T breast, 49 µM; in the experiment with MDA-MB-435 it was 36 µM; with OVCAR-3 ovarian, 31.7 µM. Also, the concentration for total growth inhibition (TGI) stood at 36.6 µM in the experiment on SF-268 CNS and 30.1 µM in the experiment on T-47D breast.

For the compound `CCCn1c(N)c(C(=O)CNc2ccc(I)cc2)c(=O)[nH]c1=O`, the GI50 in the experiment on A498 renal is 27.5 µM; with HCT-15 colon, 0.264 µM; in the experiment on HL-60(TB) leukemia it was 10.5 µM; in the experiment on HS 578T breast it was 17.4 µM; with MDA-MB-435, 6.01 µM; in the experiment on OVCAR-3 ovarian, above 48.4 µM. Moreover, the GI50 in the experiment on SF-268 CNS is 4.55 µM; in the experiment on T-47D breast it was above 100 µM. For the same compound, the TGI in the experiment with A498 renal, in the experiment with HCT-15 colon, in the experiment with HL-60(TB) leukemia, with HS 578T breast, with MDA-MB-435 and with OVCAR-3 ovarian was above 100 µM each time. Moreover, the TGI with SF-268 CNS and in the experiment with T-47D breast was above 100 µM throughout.

For the compound `CC[C@H](NC(=O)[C@H](CS(=O)(=O)CC1CC1)N[C@@H](c1ccc(F)cc1)C(F)(F)F)C(=O)C(=O)NC1CC1`, the GI50 with A498 renal, in the experiment with HCT-15 colon, with HL-60(TB) leukemia, with HS 578T breast, in the experiment on MDA-MB-435 and in the experiment with OVCAR-3 ovarian was above 100 µM each time. Moreover, the GI50 in the experiment with SF-268 CNS and in the experiment on T-47D breast was above 100 µM each time. The total growth inhibition concentration (TGI) in the experiment on A498 renal, in the experiment on HCT-15 colon, in the experiment with HL-60(TB) leukemia, in the experiment on HS 578T breast, in the experiment on MDA-MB-435 and in the experiment on OVCAR-3 ovarian was above 100 µM in each case. Further, the concentration for total growth inhibition (TGI) in the experiment with SF-268 CNS and in the experiment on T-47D breast was above 100 µM in each case.

For the origin of these results see PubChem BioAssay (NCI).
